Source: US20140329863A1 (priority 2011, published 2014)

Tests used:
[1] = in vitro; conditions: Sprague-Dawley (rat), beagle (dog), CD-1 (mouse), human, plasma
[2] = biological target: T1, CYP1A2 (Homo sapiens, UniProt P05177); assay: CYP phenotyping in human liver microsomes, furafylline; type: in vitro ADME; conditions: for CYP Involvement: CYP1A2, NADPH + Furafylline; for % Disappearance / Measured Conc. / Δ % Disappearance: irreversible incubation condition, NADPH + Furafylline
T1 construct: tissue BD Biosciences; host or cells: pooled human liver microsomes
T1 sequence (P05177 1-516): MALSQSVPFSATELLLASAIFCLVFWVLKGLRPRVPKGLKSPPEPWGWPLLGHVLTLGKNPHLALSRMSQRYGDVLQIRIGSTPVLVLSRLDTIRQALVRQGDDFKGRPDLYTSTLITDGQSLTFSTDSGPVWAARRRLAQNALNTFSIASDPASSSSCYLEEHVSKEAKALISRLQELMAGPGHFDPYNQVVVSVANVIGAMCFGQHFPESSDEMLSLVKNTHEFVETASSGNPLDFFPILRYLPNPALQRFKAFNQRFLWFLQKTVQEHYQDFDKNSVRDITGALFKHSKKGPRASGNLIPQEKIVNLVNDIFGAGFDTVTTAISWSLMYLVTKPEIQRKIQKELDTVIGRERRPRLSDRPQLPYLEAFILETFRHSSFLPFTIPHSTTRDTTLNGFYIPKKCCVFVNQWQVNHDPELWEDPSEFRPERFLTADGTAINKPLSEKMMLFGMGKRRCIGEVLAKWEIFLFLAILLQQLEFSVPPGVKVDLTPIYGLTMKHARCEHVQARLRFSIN

[3] = Binding in dog plasma
[4] = biological target: CYP2C19 (Homo sapiens, UniProt P33261); conditions: HLM, 5 μM (+)-N-3-benzylnirvanol
[5] = biological target: T2, CYP2D6 (Homo sapiens, UniProt P10635); assay: Cytochrome P450 phenotyping in human liver microsomes, CYP2D6 (quinidine); type: in vitro ADME; conditions: HLM, 1 μM quinidine
T2 construct: tissue BD Biosciences; host or cells: pooled human liver microsomes
Excerpt: (§1) % Disappearance=[(TC-NADPH TC+NADPH)/TC-NADPH]×100
(§2) for which TC is the test compound.

[6] = 1 and 10 μM
[7] = biological target: T3, CYP3A4 (Homo sapiens, UniProt P08684); assay: Cytochrome P450 phenotyping in human liver microsomes, CYP3A4 (ketoconazole); type: in vitro ADME; conditions: HLM, 1 μM ketoconazole
T3 construct: tissue BD Biosciences; host or cells: pooled human liver microsomes
Excerpt: as §1, §2

[8] = biological target: T4, CYP2C9 (Homo sapiens, UniProt P11712); assay: Cytochrome P450 phenotyping in human liver microsomes, CYP2C9 (sulfaphenazole); type: in vitro ADME; conditions: HLM, 5 μM sulfaphenazole
T4 construct: tissue BD Biosciences; host or cells: pooled human liver microsomes
Excerpt: as §1, §2

[9] = biological target: T2, CYP2D6; assay: CYP phenotyping in human liver microsomes, quinidine; type: in vitro ADME; conditions: for CYP Involvement: CYP2D6, NADPH + Quinidine; for % Disappearance / Measured Conc. / Δ % Disappearance: reversible incubation condition, NADPH + Quinidine
[10] = in vitro; conditions: FVB, mouse, 20% brain homogenate, pH 7.4, nonbound free fraction in brain, 1 and 10 μM
[11] = in vitro; conditions: dog, plasma, pH 7.4
[12] = CYP phenotyping in human liver microsomes, no inhibitor (negative control, maximum metabolism); type: in vitro ADME
[13] = biological target: T1, CYP1A2; assay: Cytochrome P450 phenotyping in human liver microsomes, CYP1A2 (furafylline); type: in vitro ADME; conditions: HLM, 10 μM furafylline
Excerpt: as §1, §2

[14] = in vitro; conditions: mouse, 20% brain homogenate
[15] = in vitro; conditions: rat, plasma, pH 7.4
[16] = in vitro; conditions: human, plasma
[17] = test system: MDCK-MDR^1 cells (P-glycoprotein); assay: Bidirectional MDCK-MDR1 cell permeability; type: in vitro ADME, canine
Method: MDCK-MDR^1 cells were grown to confluence for 5-10 days on 1-μm filters in 24-well plates {Hilgers, 1990}. Aliquots of DMSO stocks were diluted into Hank's balanced salt solution (HBSS), pH 7.4, containing […] to give 10-μM solute concentration. The solute containing donor solutions were transferred to either the apical or basolateral chamber of the permeability diffusion apparatus. Receiver solutions consisted of HBSS (pH 7.4) containing 25 mM HEPES+0.05% PS80. Sequential samples of transported solute were taken at 20-min intervals using an automated liquid handling platform. The concentration of transported solute during each sampling interval was determined by HPLC/UV/MS. Permeability coefficients were calculated for each sampling interval. The average and standard deviation from the intervals are reported. Mass balance in the system was ascertained by comparing the sum of total transported solute and remaining donor solute with the starting mass of solute and is expressed as a percentage of donor solute at time zero. […] In the event of mass balance less than 70%, the cell monolayers were extracted with ACN and analyzed for the solute of interest. Determinations were conducted in duplicate.

[18] = in vitro; conditions: plasma
[19] = Binding in human plasma; conditions: for Percentage binding, Human plasma, 1 μM / Unbound (%), Human Plasma: 1 μM; for Unbound (%), Human Plasma: mean ± SD, n = 3 (warfarin n = 2)
[20] = in vitro; conditions: rat, microsomes, pH 7.4
[21] = Toleration studies in mice; conditions: 210 mg/kg/day for 14 days, mice
[22] = irreversible incubation condition, maximum metabolism, NADPH/No Inhibitor
[23] = irreversible incubation condition, negative control, No NADPH/No Inhibitor
[24] = reversible incubation condition, maximum metabolism, NADPH/No Inhibitor
[25] = reversible incubation condition, negative control, No NADPH/No Inhibitor

T2 sequence (P10635 whole entry): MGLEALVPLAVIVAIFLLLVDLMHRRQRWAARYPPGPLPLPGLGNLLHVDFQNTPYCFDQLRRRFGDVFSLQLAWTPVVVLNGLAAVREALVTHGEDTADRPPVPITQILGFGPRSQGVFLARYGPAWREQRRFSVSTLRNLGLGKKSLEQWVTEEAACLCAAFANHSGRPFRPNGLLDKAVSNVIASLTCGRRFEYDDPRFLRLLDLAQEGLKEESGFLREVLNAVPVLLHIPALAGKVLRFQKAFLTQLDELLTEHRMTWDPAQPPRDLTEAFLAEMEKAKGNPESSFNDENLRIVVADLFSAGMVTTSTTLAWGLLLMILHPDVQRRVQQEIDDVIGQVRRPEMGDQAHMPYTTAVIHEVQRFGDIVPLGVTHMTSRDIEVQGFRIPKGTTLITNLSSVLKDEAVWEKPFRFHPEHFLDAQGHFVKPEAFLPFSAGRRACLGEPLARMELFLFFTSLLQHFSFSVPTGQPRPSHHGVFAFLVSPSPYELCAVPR
T3 sequence (P08684 whole entry): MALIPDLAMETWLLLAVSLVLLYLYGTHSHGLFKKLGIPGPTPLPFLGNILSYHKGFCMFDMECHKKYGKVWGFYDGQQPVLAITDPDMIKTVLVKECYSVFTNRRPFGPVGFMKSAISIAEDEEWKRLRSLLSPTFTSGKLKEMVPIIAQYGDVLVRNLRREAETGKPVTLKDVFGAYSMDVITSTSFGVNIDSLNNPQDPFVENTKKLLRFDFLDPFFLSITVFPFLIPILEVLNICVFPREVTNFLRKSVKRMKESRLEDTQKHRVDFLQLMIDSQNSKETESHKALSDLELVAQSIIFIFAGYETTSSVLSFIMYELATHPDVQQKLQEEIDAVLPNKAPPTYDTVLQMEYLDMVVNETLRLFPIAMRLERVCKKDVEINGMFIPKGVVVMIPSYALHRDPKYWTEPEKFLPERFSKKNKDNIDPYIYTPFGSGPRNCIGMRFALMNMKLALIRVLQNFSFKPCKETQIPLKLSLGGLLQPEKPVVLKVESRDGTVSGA
T4 sequence (P11712 whole entry): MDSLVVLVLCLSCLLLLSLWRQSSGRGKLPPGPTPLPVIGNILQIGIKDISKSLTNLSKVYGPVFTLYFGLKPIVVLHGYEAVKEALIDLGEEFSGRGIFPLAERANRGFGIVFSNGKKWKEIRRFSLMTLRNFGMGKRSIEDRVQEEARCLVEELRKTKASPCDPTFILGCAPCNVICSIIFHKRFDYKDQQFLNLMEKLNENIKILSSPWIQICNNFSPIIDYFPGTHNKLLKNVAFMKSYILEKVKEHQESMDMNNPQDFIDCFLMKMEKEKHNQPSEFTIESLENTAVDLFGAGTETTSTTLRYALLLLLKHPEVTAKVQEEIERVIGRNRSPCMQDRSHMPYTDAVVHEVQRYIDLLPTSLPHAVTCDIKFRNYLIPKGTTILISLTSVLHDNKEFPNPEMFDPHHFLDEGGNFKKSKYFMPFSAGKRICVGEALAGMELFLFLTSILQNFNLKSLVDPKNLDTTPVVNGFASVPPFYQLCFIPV
Sequence of CYP2C19 (P33261 whole entry): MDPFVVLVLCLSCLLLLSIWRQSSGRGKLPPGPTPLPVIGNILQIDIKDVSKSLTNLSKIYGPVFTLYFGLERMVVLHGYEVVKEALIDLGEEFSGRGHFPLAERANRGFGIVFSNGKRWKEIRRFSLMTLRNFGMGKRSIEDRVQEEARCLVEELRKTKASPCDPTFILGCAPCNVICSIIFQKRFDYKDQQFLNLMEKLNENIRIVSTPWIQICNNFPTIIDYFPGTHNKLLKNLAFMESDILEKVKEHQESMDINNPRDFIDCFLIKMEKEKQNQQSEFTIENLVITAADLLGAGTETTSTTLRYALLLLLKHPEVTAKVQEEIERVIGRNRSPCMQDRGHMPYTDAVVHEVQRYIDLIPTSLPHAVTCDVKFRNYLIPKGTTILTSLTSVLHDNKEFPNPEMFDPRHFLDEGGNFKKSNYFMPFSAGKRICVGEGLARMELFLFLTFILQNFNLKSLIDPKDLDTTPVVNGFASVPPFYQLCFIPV

Cc1ccnc(Nc2nc(-c3ccc(-c4ccccn4)s3)cs2)c1 [IND81, (4-Methyl-pyridin-2-yl)-[4-(5-pyridin-2-yl-thiophen-2-yl)-thiazol-2-yl]-amine]
fraction unbound [1]: 0.57
CYP Involvement [2]: Unlikely (unlikely for values <5)
% Disappearance [2]: 41%
Measured Conc. [2]: 0.534 µM
Δ % Disappearance [2]: 43%
Percentage binding, Dog plasma, 1 μM [3]: 94.4 ± 1.88%
Percentage binding, Dog plasma, 10 μM [3]: 94.7 ± 1.03%
involvement of CYP2C19 in metabolism [4]: might be involved to a smaller extent
involvement of CYP2D6 in metabolism [5]: most likely to be involved
brain tissue binding [6]: ~90%
involvement of CYP3A4 in metabolism [7]: most likely to be involved
involvement of CYP2C9 in metabolism [8]: unlikely to be involved
CYP Involvement [9]: Likely (likely for values >10)
% Disappearance [9]: 55%
Measured Conc. [9]: 0.300 µM
Δ % Disappearance [9]: 11%
fraction unbound at 4 h [10]: 0.06 to 0.09
fraction unbound at 4 h ([11]; beagle): ~0.57
fraction unbound at 4 h [11]: 0.04 to 0.07
% Disappearance [12, 22]: 84%
Measured Conc. [12, 22]: 0.143 µM
Δ % Disappearance [12, 22]: 0%
% Disappearance [12, 23]: 0%
Measured Conc. [12, 23]: 0.899 µM
% Disappearance [12, 24]: 66%
Measured Conc. [12, 24]: 0.226 µM
Δ % Disappearance [12, 24]: 0%
% Disappearance [12, 25]: 0%
Measured Conc. [12, 25]: 0.664 µM
involvement of CYP1A2 in metabolism [13]: most likely to be involved
fraction unbound [14]: 0.09
fraction unbound at 4 h ([15]; Sprague-Dawley): ~0.57
fraction unbound at 4 h [15]: 0.04 to 0.07
fraction unbound at 4 h ([16]; pH 7.4, free fraction in plasma): ~0.57
fraction unbound at 4 h ([16]; pH 7.4, plasma protein binding, 1 and 10 μM): 0.04 to 0.07
P-gp substrate status, absorptive vs secretory permeability [17]: not substrates
fraction unbound at 4 h ([18]; CD-1, mouse, pH 7.4, free fraction in plasma): ~0.57
fraction unbound at 4 h ([18]; mouse, pH 7.4, free fraction in plasma): 0.06 to 0.09
fraction unbound at 4 h ([18]; mouse, pH 7.4, plasma protein binding, 1 and 10 μM): 0.04 to 0.07
Percentage binding, Human plasma, 1 μM [19]: 94.2 ± 3.21%
Unbound (%), Human Plasma [19]: 5.78 ± 3.21%
Percentage binding, Human plasma, 10 μM [19]: 95.2 ± 0.86%

Cc1cccc(Nc2nc(-c3ccc(-c4ccccc4)cc3)cs2)n1 [IND24, (4-Biphenyl-4-yl-thiazol-2-yl)-(6-methyl-pyridin-2-yl)-amine]
CYP Involvement [2]: Unlikely (unlikely for values <5)
% Disappearance [2]: 0 (−23) %
Measured Conc. [2]: 0.766 µM
Δ % Disappearance [2]: 0%
Percentage binding, Dog plasma, 1 μM [3]: 95.1 ± 1.38%
Percentage binding, Dog plasma, 10 μM [3]: 95.0 ± 0.32%
half-life at 1 μM [20]: > 1 h
brain tissue binding [6]: 92-93%
CYP Involvement [9]: Unlikely (unlikely for values <5)
% Disappearance [9]: 15%
Measured Conc. [9]: 0.555 µM
Δ % Disappearance [9]: 0 (−15) %
fraction unbound at 4 h [10]: 0.06 to 0.09
% Disappearance [12, 22]: 0 (−18) %
Measured Conc. [12, 22]: 0.733 µM
Δ % Disappearance [12, 22]: 0%
Measured Conc. [12, 23]: 0.622 µM
% Disappearance [12, 24]: 0%
Measured Conc. [12, 24]: 0.655 µM
Δ % Disappearance [12, 24]: 0%
% Disappearance [12, 25]: 0%
Measured Conc. [12, 25]: 0.654 µM
fraction unbound [14]: 0.07 to 0.08
Toleration [21]: well tolerated
P-gp substrate status, absorptive vs secretory permeability [17]: not substrates
Percentage binding, Human plasma, 1 μM [19]: 95.1 ± 1.03%
Unbound (%), Human Plasma [19]: 4.91 ± 1.03%
Percentage binding, Human plasma, 10 μM [19]: 95.4 ± 1.17%
